The values that follow come from patent publication US9663525B2, “Pyrazolopyrimidinyl inhibitors of ubiquitin-activating enzyme” (Millennium Pharmaceuticals, Inc., priority 2012, dated 2017).

The target in one assay is mouse UAE (Mus musculus (Mouse), UniProt Q02053). As to the kind of experiment: Ubiquitin Activating Enzyme (UAE) HTRF assay, mouse UAE. In general terms: TR-FRET usually uses a lanthanide donor and a delayed reading to cut background.
For assay [1], the system named is mouse acute myeloid leukemia (AML model). To be noted: cited from earlier work.
Assay [2] deals with leukemia and myeloma cell lines. To be noted: cited from earlier work.

Sequence of mouse UAE (Q02053 whole entry): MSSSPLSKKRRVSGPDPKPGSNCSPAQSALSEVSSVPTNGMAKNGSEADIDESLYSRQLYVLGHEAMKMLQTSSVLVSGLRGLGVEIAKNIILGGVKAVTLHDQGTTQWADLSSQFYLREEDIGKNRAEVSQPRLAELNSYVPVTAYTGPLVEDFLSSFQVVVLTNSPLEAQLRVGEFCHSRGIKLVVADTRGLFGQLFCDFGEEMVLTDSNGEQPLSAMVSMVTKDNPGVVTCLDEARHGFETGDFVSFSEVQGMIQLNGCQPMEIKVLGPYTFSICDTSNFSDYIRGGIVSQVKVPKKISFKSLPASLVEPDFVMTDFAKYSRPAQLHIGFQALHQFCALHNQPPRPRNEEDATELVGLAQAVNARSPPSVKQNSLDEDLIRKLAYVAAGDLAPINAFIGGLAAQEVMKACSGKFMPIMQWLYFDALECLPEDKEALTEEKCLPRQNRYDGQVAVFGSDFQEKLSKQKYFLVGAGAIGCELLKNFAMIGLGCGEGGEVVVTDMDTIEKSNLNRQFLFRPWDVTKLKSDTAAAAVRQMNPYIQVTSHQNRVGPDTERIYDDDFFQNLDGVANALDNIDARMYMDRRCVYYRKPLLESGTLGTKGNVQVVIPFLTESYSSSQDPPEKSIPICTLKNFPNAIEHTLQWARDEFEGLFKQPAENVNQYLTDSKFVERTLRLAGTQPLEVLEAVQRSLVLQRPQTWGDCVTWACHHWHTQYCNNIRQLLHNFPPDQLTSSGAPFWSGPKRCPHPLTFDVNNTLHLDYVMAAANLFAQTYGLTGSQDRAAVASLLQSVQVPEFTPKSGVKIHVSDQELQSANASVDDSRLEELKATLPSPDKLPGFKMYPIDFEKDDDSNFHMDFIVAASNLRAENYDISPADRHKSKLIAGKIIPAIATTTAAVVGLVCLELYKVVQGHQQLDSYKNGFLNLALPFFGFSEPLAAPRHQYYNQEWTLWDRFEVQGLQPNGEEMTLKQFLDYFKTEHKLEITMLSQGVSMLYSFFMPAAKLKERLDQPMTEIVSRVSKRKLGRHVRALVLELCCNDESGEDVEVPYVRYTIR
Description for mouse UAE: After incubation for 120 minutes, quantification of the FRET is performed on the Pherostar (BMG).
For compounds whose values are marked with an asterisk (*), mouse UAE was used. For all other compounds, human UAE was used.

Consider `NS(=O)(=O)OC[C@H]1C[C@@H](Nc2cc(Cl)nc3cc(-c4ccccn4)nn23)[C@H](O)[C@@H]1O` (racemic) [Compound I-011, (rac)-((1R,2R,3S,4R)-4-(5-chloro-2-(pyridin-2-yl)pyrazolo[1,5-a]pyrimidin-7-ylamino)-2,3-dihydroxycyclopentyl)methyl rel-sulfamate], for which the IC50 – broadly, the concentration at which inhibition is half-maximal – against mouse UAE fell in the range of 100 to 1000 nM.
In turn, `NS(=O)(=O)OC[C@H]1C[C@@H](Nc2ccnc3cc(-c4ccccn4)nn23)[C@H](O)[C@@H]1O` (racemic) [Compound I-012, (rac)-[(1R,2R,3S,4R)-2,3-dihydroxy-4-{[2-(pyridin-2-yl)pyrazolo[1,5-a]pyrimidin-7-yl]amino}cyclopentyl]methyl rel-sulfamate] gave an IC50 against mouse UAE of 10 to 100 nM.
On the same count and under the same terms, under `NS(=O)(=O)OC[C@H]1C[C@@H](Nc2ccnc3cc(-c4csc5cc(Cl)ccc45)nn23)[C@H](O)[C@@H]1O` (racemic) [Compound I-091, (rac)-((1R,2R,3S,4R)-4-(2-(6-chlorobenzo[b]thiophen-3-yl)pyrazolo[1,5-a]pyrimidin-7-ylamino)-2,3-dihydroxycyclopentyl)methyl rel-sulfamate] stands < 10 nM.
For `O=C1NN(c2ccc(F)c(Cl)c2)C(=O)/C1=C\c1ccc([N+](=O)[O-])o1` [PYZD-4409], in assay [1], the anti-tumor activity result is “demonstrated anti-tumor activity”. Besides, in assay [2], the cell death entry is recorded as “induced cell death”.
